pKd: −log10 of the molar value. Values joined by “and” are separate entries in the source; they are usually repeats but may differ in a detail not shown here. Equal entries are not always repeated. Where two headings read alike, the source gives them in different places.
Columns and labels:
HsProRS = HsProRS (Homo sapiens, UniProt P07814); test: TR-FRET ligand displacement assay with tracer MAT379 (CoraFluor-1-Halo and anti-His6 antibody formats); format: binding; set-up: made in house; host or cells: E. coli SoluBL-21; settings: for TR-FRET dose-response, normalized signal (SI Fig 11): individual replicates
[1] = system: halofuginone-induced P. falciparum (elevated proline homeostasis); test: P. falciparum ABS growth assay, SYBR Green, 72 h, halofuginone-induced parasites; format: cell-based, Plasmodium falciparum; settings: for parasite growth, dose-response point: Halofuginone-Induced (HFG-Induced), single replicates
In short: (§1)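 SYBR Green 1 fluorescence after 72 h quantified growth of erythrocytic-stage Dd2 lines seeded at 1% parasitemia and 1% hematocrit. Compounds were tested in triplicate dose-response format in RPMI with 0.5% Albumax, referenced to 10 μM dihydroartemisinin and untreated wells.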

[2] = system: HFGR-I P. falciparum (elevated proline homeostasis and PfcProRS^L482H); test: P. falciparum ABS growth assay, SYBR Green, 72 h, HFGR-I parasites; format: cell-based, Plasmodium falciparum; settings: HFGR-I, single replicates
In short: as §1

PfcProRS = molecular target: T1, PfcProRS (Plasmodium falciparum, UniProt Q8I5R7); format: binding; settings: for dose-response signal (normalized), SI Fig 8: single replicates
T1 construct: made in house; host or cells: E. coli SoluBL-21

P. falciparum Dd2-2D4 = test: P. falciparum asexual blood stage (ABS) growth assay, SYBR Green, 72 h, wild-type parasites; format: cell-based, Plasmodium falciparum; settings: for ABS growth dose-response, normalized signal (Replicates 1-3) / parasite growth, dose-response point: Dd2-2D4; for parasite growth, dose-response point: single replicates

Sequence of HsProRS (P07814 996-1512): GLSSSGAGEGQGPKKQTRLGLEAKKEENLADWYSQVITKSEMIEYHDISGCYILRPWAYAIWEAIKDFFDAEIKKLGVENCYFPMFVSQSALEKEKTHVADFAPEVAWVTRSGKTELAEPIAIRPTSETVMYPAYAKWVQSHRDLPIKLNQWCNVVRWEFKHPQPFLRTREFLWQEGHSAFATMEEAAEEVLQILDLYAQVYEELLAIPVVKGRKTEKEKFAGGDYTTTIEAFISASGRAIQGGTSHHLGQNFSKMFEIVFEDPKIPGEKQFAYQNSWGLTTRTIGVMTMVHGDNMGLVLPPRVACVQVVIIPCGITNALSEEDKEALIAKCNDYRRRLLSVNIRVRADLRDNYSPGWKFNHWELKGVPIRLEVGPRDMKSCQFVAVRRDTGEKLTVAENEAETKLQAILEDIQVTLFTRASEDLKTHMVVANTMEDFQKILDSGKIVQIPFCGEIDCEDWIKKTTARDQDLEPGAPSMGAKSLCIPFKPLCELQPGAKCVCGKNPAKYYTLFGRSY
T1 sequence (Q8I5R7 249-746): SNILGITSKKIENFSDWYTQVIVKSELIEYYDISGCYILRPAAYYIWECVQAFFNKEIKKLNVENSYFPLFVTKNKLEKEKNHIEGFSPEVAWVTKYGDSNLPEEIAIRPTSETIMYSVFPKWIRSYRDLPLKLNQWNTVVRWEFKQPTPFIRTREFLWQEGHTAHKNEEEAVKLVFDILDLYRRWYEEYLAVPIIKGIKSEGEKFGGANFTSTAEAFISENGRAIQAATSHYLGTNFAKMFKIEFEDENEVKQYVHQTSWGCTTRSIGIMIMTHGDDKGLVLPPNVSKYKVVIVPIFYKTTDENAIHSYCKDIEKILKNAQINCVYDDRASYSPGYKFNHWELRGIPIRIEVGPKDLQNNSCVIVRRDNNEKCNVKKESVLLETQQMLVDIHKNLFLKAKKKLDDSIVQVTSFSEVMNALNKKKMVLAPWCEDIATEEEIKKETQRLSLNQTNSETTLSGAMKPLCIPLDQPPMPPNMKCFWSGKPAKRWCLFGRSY

Compound: CC1(C(=O)Nc2nccnc2C(=O)NC2Cc3ccccc3C2)CCCCC1 [compound 4]
- Kd (HsProRS; HsProRS (KD [nM]) −, absence of substrates, 250 nM MAT379): 221 nM
- pKd (HsProRS; HsProRS - best Kd, SI Fig 16a, values on -log scale): 8.59
- normalized TR-FRET ligand displacement signal, dose-response replicates (SI Fig 6) (HsProRS; Log[inhibitor] (M) -5.000): 4.53E-02 and 6.57E-02 and 9.85E-02
- TR-FRET dose-response, normalized signal (SI Fig 11) (HsProRS; Log[inhibitor] (M) -5.000): 6.99E-03 and -1.87E-02 and 8.97E-03
- normalized TR-FRET ligand displacement signal, dose-response replicates (SI Fig 6) (HsProRS; Log[inhibitor] (M) -5.301): 8.38E-02 and 1.09E-01 and 1.45E-01
- TR-FRET dose-response, normalized signal (SI Fig 11) (HsProRS; Log[inhibitor] (M) -5.301): 5.00E-02 and 2.79E-02 and 4.24E-02
- normalized TR-FRET ligand displacement signal, dose-response replicates (SI Fig 6) (HsProRS; Log[inhibitor] (M) -5.601): 2.80E-01 and 1.33E-01 and 2.62E-01
- TR-FRET dose-response, normalized signal (SI Fig 11) (HsProRS; Log[inhibitor] (M) -5.601): 1.01E-01 and 8.93E-02 and 1.03E-01
- normalized TR-FRET ligand displacement signal, dose-response replicates (SI Fig 6) (HsProRS; Log[inhibitor] (M) -5.904): 4.58E-01 and 3.89E-01 and 4.73E-01
- TR-FRET dose-response, normalized signal (SI Fig 11) (HsProRS; Log[inhibitor] (M) -5.904): 1.64E-01 and 2.16E-01 and 1.95E-01
- normalized TR-FRET ligand displacement signal, dose-response replicates (SI Fig 6) (HsProRS; Log[inhibitor] (M) -6.208): 6.24E-01 and 6.52E-01 and 5.78E-01
- TR-FRET dose-response, normalized signal (SI Fig 11) (HsProRS; Log[inhibitor] (M) -6.208): 2.83E-01 and 3.32E-01 and 2.85E-01
- normalized TR-FRET ligand displacement signal, dose-response replicates (SI Fig 6) (HsProRS; Log[inhibitor] (M) -6.509): 8.00E-01 and 8.38E-01 and 8.01E-01
- TR-FRET dose-response, normalized signal (SI Fig 11) (HsProRS; Log[inhibitor] (M) -6.509): 4.57E-01 and 4.64E-01 and 4.80E-01
- normalized TR-FRET ligand displacement signal, dose-response replicates (SI Fig 6) (HsProRS; Log[inhibitor] (M) -6.796): 9.06E-01 and 8.75E-01 and 9.05E-01
- TR-FRET dose-response, normalized signal (SI Fig 11) (HsProRS; Log[inhibitor] (M) -6.796): 6.22E-01 and 6.48E-01 and 6.15E-01
- normalized TR-FRET ligand displacement signal, dose-response replicates (SI Fig 6) (HsProRS; Log[inhibitor] (M) -7.108): 9.19E-01 and 1.02E+00 and 8.47E-01
- TR-FRET dose-response, normalized signal (SI Fig 11) (HsProRS; Log[inhibitor] (M) -7.108): 7.25E-01 and 7.35E-01 and 7.08E-01
- normalized TR-FRET ligand displacement signal, dose-response replicates (SI Fig 6) (HsProRS; Log[inhibitor] (M) -7.409): 8.93E-01 and 1.05E+00 and 9.99E-01
- TR-FRET dose-response, normalized signal (SI Fig 11) (HsProRS; Log[inhibitor] (M) -7.409): 8.57E-01 and 8.69E-01 and 8.79E-01
- normalized TR-FRET ligand displacement signal, dose-response replicates (SI Fig 6) (HsProRS; Log[inhibitor] (M) -7.710): 9.69E-01 (2×) and 9.96E-01
- TR-FRET dose-response, normalized signal (SI Fig 11) (HsProRS; Log[inhibitor] (M) -7.710): 9.21E-01 and 9.18E-01 and 9.07E-01
- normalized TR-FRET ligand displacement signal, dose-response replicates (SI Fig 6) (HsProRS; Log[inhibitor] (M) -8.000): 1.02E+00 and 9.51E-01 and 1.08E+00
- TR-FRET dose-response, normalized signal (SI Fig 11) (HsProRS; Log[inhibitor] (M) -8.000): 9.42E-01 and 9.60E-01 and 9.15E-01
- normalized TR-FRET ligand displacement signal, dose-response replicates (SI Fig 6) (HsProRS; Log[inhibitor] (M) -8.301): 8.99E-01 and 1.00E+00 and 9.75E-01
- TR-FRET dose-response, normalized signal (SI Fig 11) (HsProRS; Log[inhibitor] (M) -8.301): 9.32E-01 and 9.20E-01 and 9.46E-01
- normalized TR-FRET ligand displacement signal, dose-response replicates (SI Fig 6) (HsProRS; Log[inhibitor] (M) -8.602): 9.54E-01 and 1.01E+00 and 9.27E-01
- TR-FRET dose-response, normalized signal (SI Fig 11) (HsProRS; Log[inhibitor] (M) -8.602): 9.70E-01 and 9.45E-01 and 9.16E-01
- normalized TR-FRET ligand displacement signal, dose-response replicates (SI Fig 6) (HsProRS; Log[inhibitor] (M) -9.000): 9.66E-01 and 9.16E-01 and 8.85E-01
- TR-FRET dose-response, normalized signal (SI Fig 11) (HsProRS; Log[inhibitor] (M) -9.000): 9.54E-01 and 9.83E-01 and 9.88E-01
- normalized TR-FRET ligand displacement signal, dose-response replicates (SI Fig 6) (HsProRS; Log[inhibitor] (M) -9.301): 1.02E+00 (2×) and 1.01E+00
- TR-FRET dose-response, normalized signal (SI Fig 11) (HsProRS; Log[inhibitor] (M) -9.301): 9.40E-01 and 9.47E-01 and 9.44E-01
- parasite growth, dose-response point ([1]; Log[inhibitor] (M) -5): 1
- parasite growth, dose-response point ([1]; Log[inhibitor] (M) -5.408): 1
- parasite growth, dose-response point ([1]; Log[inhibitor] (M) -5.816): 0 (2×) and 1
- parasite growth, dose-response point ([1]; Log[inhibitor] (M) -6.222): 16 and 18 and 17
- parasite growth, dose-response point ([1]; Log[inhibitor] (M) -6.638): 99 (2×) and 106
- parasite growth, dose-response point ([1]; Log[inhibitor] (M) -7.046): 103 (2×) and 109
- parasite growth, dose-response point ([1]; Log[inhibitor] (M) -7.45): 100 and 97
- parasite growth, dose-response point ([1]; Log[inhibitor] (M) -7.854): 100 (2×) and 97
- parasite growth, dose-response point ([1]; Log[inhibitor] (M) -8.26): 101 and 95 and 97
- parasite growth, dose-response point ([1]; Log[inhibitor] (M) -8.699): 99 and 98 (2×)
- parasite growth, dose-response point ([1]; Log[inhibitor] (M) -9): 96 (2×) and 97
- parasite growth, dose-response point ([1]; Log[inhibitor] (M) -9.488): 98 and 95 and 102
- dose-response value, Replicates 1-3 (SI Fig 2e) ([1]; Log[inhibitor] (M) -5.000): 1
- dose-response value, Replicates 1-3 (SI Fig 2e) ([1]; Log[inhibitor] (M) -5.408): 1
- parasite growth, dose-response point ([2]; Log[inhibitor] (M) -5): 6 and 7 (2×)
- parasite growth, dose-response point ([2]; Log[inhibitor] (M) -5.408): 7 (2×) and 6
- parasite growth, dose-response point ([2]; Log[inhibitor] (M) -5.816): 6 (2×) and 7
- parasite growth, dose-response point ([2]; Log[inhibitor] (M) -6.222): 10 (2×) and 9
- parasite growth, dose-response point ([2]; Log[inhibitor] (M) -6.638): 75 and 76 and 81
- parasite growth, dose-response point ([2]; Log[inhibitor] (M) -7.046): 99 and 105 and 110
- parasite growth, dose-response point ([2]; Log[inhibitor] (M) -7.45): 87 and 99 and 100
- parasite growth, dose-response point ([2]; Log[inhibitor] (M) -7.854): 99 and 98 and 103
- parasite growth, dose-response point ([2]; Log[inhibitor] (M) -8.26): 100 and 101 and 104
- parasite growth, dose-response point ([2]; Log[inhibitor] (M) -8.699): 98 and 99 and 104
- parasite growth, dose-response point ([2]; Log[inhibitor] (M) -9): 101 and 97 and 100
- parasite growth, dose-response point ([2]; Log[inhibitor] (M) -9.488): 89 and 96 and 93
- dose-response signal (normalized), SI Fig 8 (PfcProRS; Log[inhibitor] (M) -5.000): 4.05E-02 and -1.19E-01 and -1.91E-02
- dose-response signal (normalized), SI Fig 8 (PfcProRS; Log[inhibitor] (M) -5.301): -7.53E-02 and -2.32E-02 and 3.73E-02
- dose-response signal (normalized), SI Fig 8 (PfcProRS; Log[inhibitor] (M) -5.601): -7.78E-02 and -2.66E-03 and -2.25E-02
- dose-response signal (normalized), SI Fig 8 (PfcProRS; Log[inhibitor] (M) -5.904): 1.67E-02 and 2.48E-02 and 1.76E-02
- dose-response signal (normalized), SI Fig 8 (PfcProRS; Log[inhibitor] (M) -6.208): 8.20E-02 and 4.30E-02 and 6.02E-02
- dose-response signal (normalized), SI Fig 8 (PfcProRS; Log[inhibitor] (M) -6.509): 7.49E-03 and -2.38E-02 and -1.11E-02
- dose-response signal (normalized), SI Fig 8 (PfcProRS; Log[inhibitor] (M) -6.796): 4.86E-02 and 3.80E-02 and -1.10E-02
- dose-response signal (normalized), SI Fig 8 (PfcProRS; Log[inhibitor] (M) -7.108): 4.17E-02 and 7.57E-02 and 3.79E-02
- dose-response signal (normalized), SI Fig 8 (PfcProRS; Log[inhibitor] (M) -7.409): 2.11E-01 and 1.42E-01 and 1.90E-01
- dose-response signal (normalized), SI Fig 8 (PfcProRS; Log[inhibitor] (M) -7.710): 4.47E-01 and 2.93E-01 and 4.00E-01
- dose-response signal (normalized), SI Fig 8 (PfcProRS; Log[inhibitor] (M) -8.000): 7.09E-01 and 7.29E-01 and 6.69E-01
- dose-response signal (normalized), SI Fig 8 (PfcProRS; Log[inhibitor] (M) -8.301): 8.70E-01 and 9.23E-01 and 9.80E-01
- dose-response signal (normalized), SI Fig 8 (PfcProRS; Log[inhibitor] (M) -8.602): 1.09E+00 and 9.73E-01 and 1.05E+00
- dose-response signal (normalized), SI Fig 8 (PfcProRS; Log[inhibitor] (M) -9.000): 9.29E-01 and 9.06E-01 and 9.66E-01
- dose-response signal (normalized), SI Fig 8 (PfcProRS; Log[inhibitor] (M) -9.301): 8.49E-01 and 1.04E+00 and 9.72E-01
- PfcProRS -- best Kd (PfcProRS; SI Fig 16a, values on -log scale): 8.466
- ABS growth dose-response, normalized signal (Replicates 1-3) (P. falciparum Dd2-2D4; Log[inhibitor] (M) -5.000): 0
- parasite growth, dose-response point (P. falciparum Dd2-2D4; Log[inhibitor] (M) -5.000): 0
- ABS growth dose-response, normalized signal (Replicates 1-3) (P. falciparum Dd2-2D4; Log[inhibitor] (M) -5.301): 0
- parasite growth, dose-response point (P. falciparum Dd2-2D4; Log[inhibitor] (M) -5.301): 0
- ABS growth dose-response, normalized signal (Replicates 1-3) (P. falciparum Dd2-2D4; Log[inhibitor] (M) -5.602): 0
- parasite growth, dose-response point (P. falciparum Dd2-2D4; Log[inhibitor] (M) -5.602): 0
- ABS growth dose-response, normalized signal (Replicates 1-3) (P. falciparum Dd2-2D4; Log[inhibitor] (M) -6.505): 8
- parasite growth, dose-response point (P. falciparum Dd2-2D4; Log[inhibitor] (M) -6.505): 8
- EC50 (P. falciparum Dd2-2D4; Plasmodium falciparum, DD2, SI Fig 16b, values on -log scale, read-out: ABS - Dd2-2D4 (converted)): 0.18 µM

Reference: publication PMC9403976, “Elucidating the path to Plasmodium prolyl-tRNA synthetase inhibitors that overcome halofuginone resistance” (Nature Communications, 2022)
